Results reported in patent EP4745117A1, “NOVEL INDENONE DERIVATIVE AND USE THEREOF” (Amyloid Solution Inc., priority 2023, dated 2025).

Key:
Aβ1-42 = target: T1, Aβ1-42 (Homo sapiens, UniProt P05067); experiment: Amyloid-beta disaggregation test by Thioflavin-T analysis; assay type: biochemical; conditions: Aβ1-42 50 µM aggregated 24 hours, then compound 0 - 500 µM for 48 hours at 37 °C; concentration disaggregating 50 % of aggregates vs control; read-out: EC50 (µM) Aβ
T1 construct: dissolving Aβ1-42 or Tau-RD3 (Tau repeat domain 3) monomers in DMSO
Method in brief: (§1)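 Aβ1-42 (50 µM) or Tau-RD3 (35 µM) pre-aggregated 24 h at 37 °C, then incubated with compound (500 µM down to 0 µM, serial dilution) for 48 h at 37 °C. Read-out by Thioflavin-T (5 µM solution, glycine buffer pH 8.5) fluorescence, ex 450/em 485 nm. Values expressed relative to 72 h aggregated protein-only control (100%).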

[1] = target: Tau-RD3 (Tau repeat domain 3) (Homo sapiens, UniProt P10636); experiment: Tau disaggregation test by Thioflavin-T analysis; assay type: biochemical; conditions: Tau-RD3 35 µM aggregated 24 hours, then compound 0 - 500 µM for 48 hours at 37 °C; concentration disaggregating 50 % of aggregates vs control; read-out: EC50 (µM) Tau
Method in brief: as §1

Tau-RD3 (Tau repeat domain 3), sequence (P10636 623-653 limits assumed): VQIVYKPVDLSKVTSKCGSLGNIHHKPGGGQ
T1 sequence (P05067 672-713 limits assumed): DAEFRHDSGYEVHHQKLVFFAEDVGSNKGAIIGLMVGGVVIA

Structure (SMILES)	EC50 (Aβ1-42)	EC50 [1]
Cc1ncsc1C1=C(c2ccc(CN3CCN(C)CC3)cc2)c2ccccc2C1=O [Compound 92, 3-(4-((4-methylpiperazin-1-yl)methyl)phenyl)-2-(4-methylthiazol-5-yl)-1H-inden-1-one]	20 to 100 µM	20 to 100 µM
Cc1ncsc1C1=C(c2cccc(CN3CCN(C)CC3)c2)c2ccccc2C1=O [Compound 93, 3-(3-((4-methylpiperazin-1-yl)methyl)phenyl)-2-(4-methylthiazol-5-yl)-1H-inden-1-one]	20 to 100 µM	20 to 100 µM
CN1CCN(c2cccc(C3=C(c4ccccc4)C(=O)c4ccccc43)c2)CC1 [Compound 95, 3-(3-(4-methylpiperazin-1-yl)phenyl)-2-phenyl-1H-inden-1-one]	20 to 100 µM	> 250 µM
CC(C)(C)c1cc(C2=C(c3ccccc3)C(=O)c3ccccc32)cc(C(C)(C)C)c1 [Compound 96, 3-(3,5-di-tert-butylphenyl)-2-phenyl-1H-inden-1-one]	> 250 µM	> 250 µM
O=C1C(c2ccccc2)=C(c2ccccc2)c2ncccc21 [Compound 98, 6,7-diphenyl-5H-cyclopenta[b]pyridin-5-one]	> 250 µM	> 250 µM
CNC(=O)c1ccccc1C1=C(c2ccccc2C)c2ccccc2C1=O [Compound 99, N-methyl-2-(1-oxo-3-(o-tolyl)-1H-inden-2-yl)benzamide]	> 250 µM	> 250 µM
CCOC(=O)c1ccccc1C1=C(c2ccccc2C)c2ccccc2C1=O [Compound 99-7, ethyl 2-(1-oxo-3-(o-tolyl)-1H-inden-2-yl)benzoate]	100 to 250 µM	> 250 µM
Cc1ccccc1C1=C(c2ccccc2C(=O)O)C(=O)c2ccccc21 [Compound 99-8, 2-(1-oxo-3-(o-tolyl)-1H-inden-2-yl)benzoic acid]	> 250 µM	20 to 100 µM

Next, values leading:

EC50 (Aβ1-42)	EC50 [1]	Structure (SMILES)
20 to 100 µM	< 20 µM	Cc1ncsc1C1=C(c2ccc(CN3CCN(C)CC3)cc2)C(=O)c2ccccc21 [Compound 86, 2-(4-((4-methylpiperazin-1-yl)methyl)phenyl)-3-(4-methylthiazol-5-yl)-1H-inden-1-one]
< 20 µM	20 to 100 µM	Cc1ncsc1C1=C(c2ccc(CN3CCOCC3)cc2)C(=O)c2ccccc21 [Compound 87, 3-(4-methylthiazol-5-yl)-2-(4-(morpholinomethyl)phenyl)-1H-inden-1-one]
< 20 µM	20 to 100 µM	Cc1ncsc1C1=C(c2cccc(CN3CCN(C)CC3)c2)C(=O)c2ccccc21 [Compound 88, 2-(3-((4-methylpiperazin-1-yl)methyl)phenyl)-3-(4-methylthiazol-5-yl)-1H-inden-1-one]
20 to 100 µM	100 to 250 µM	Cc1ncsc1C1=C(c2cccc(CN3CCOCC3)c2)C(=O)c2ccccc21 [Compound 89, 3-(4-methylthiazol-5-yl)-2-(3-(morpholinomethyl)phenyl)-1H-inden-1-one]
< 20 µM	> 250 µM	CN1CCN(c2cccc(C3=C(c4ccccc4)c4ccccc4C3=O)c2)CC1 [Compound 91, 2-(3-(4-methylpiperazin-1-yl)phenyl)-3-phenyl-1H-inden-1-one]
< 20 µM	20 to 100 µM	CN1CCN(c2ccc(C3=C(c4ccccc4)C(=O)c4ccccc43)cc2)CC1 [Compound 94, 3-(4-(4-methylpiperazin-1-yl)phenyl)-2-phenyl-1H-inden-1-one]
< 20 µM	> 250 µM	COc1cc(OC)c2c(c1)C(=O)C(c1ccccc1)=C2c1ccccc1 [Compound 97, 4,6-dimethoxy-2,3-diphenyl-1H-inden-1-one]
